According to US20240287138A1, “CYCLIC PEPTIDES FOR INHIBITING TNF RECEPTOR 1 ACTIVITY” (Merck Sharp & Dohme LLC, priority 2023, published 2024):
pIC50, pKd: −log10 of the molar value. Numbered stars: 1 amine (or outer) side, 2 acyl side, 3 side chain; on linkers, the order of the positions; unused ones are H or OH. Bridge positions count the residues as written; N and C are the ends. Square brackets hold non-standard residues; d marks the D form. Peptide text beside a SMILES is read from it. * marks the point of attachment. Trp(βS-Me,7-OMe) = COc1cccc2c([C@H](C)[C@H](N)C(=O)O)c[nH]c12; Trp(βS-Me) = C[C@@H](c1c[nH]c2ccccc12)[C@H](N)C(=O)O; Trp(7-CN) = N#Cc1cccc2c(C[C@H](N)C(=O)O)c[nH]c12; Trp(7-Cl) = N[C@@H](Cc1c[nH]c2c(Cl)cccc12)C(=O)O; Phe(3-CONH2) = NC(=O)c1cccc(C[C@H](N)C(=O)O)c1; Phe(4-CONH2) = NC(=O)c1ccc(C[C@H](N)C(=O)O)cc1; Phe(4-COOH) = N[C@@H](Cc1ccc(C(=O)O)cc1)C(=O)O; Trp(7-aza) = N[C@@H](Cc1c[nH]c2ncccc12)C(=O)O; Phe(4-CH2NH2) = NCc1ccc(C[C@H](N)C(=O)O)cc1; dPro(trans-4-F) = O=C(O)[C@H]1C[C@H](F)CN1; Pip(5R-OH) = O=C(O)[C@@H]1CC[C@@H](O)CN1; X4 = O=C([C@H]1C=C[C@@H](N[*:1])C1)[*:2]; αMeW = C[C@](N)(Cc1c[nH]c2ccccc12)C(=O)O; X1 = O=C([C@@H]1CC[C@H](N[*:1])C1)[*:2]; X19 = O=C([C@H](Cc1ccncn1)N[*:1])[*:2]; 2Nal = N[C@@H](Cc1ccc2ccccc2c1)C(=O)O; Isoxazole(3-carbonyl) = O=C(c1ccon1)*; X6 = O=C([C@@H](N[*:1])C1(O)CC1)[*:2]; Pip(4-aza) = O=C(O)[C@@H]1CNCCN1; hPhe = N[C@@H](CCc1ccccc1)C(=O)O; 3Pal = N[C@@H](Cc1cccnc1)C(=O)O; 4Pal = N[C@@H](Cc1ccncc1)C(=O)O; NMeE = CN[C@@H](CCC(=O)O)C(=O)O; dHyp = O=C(O)[C@H]1C[C@H](O)CN1; Cit = NC(=O)NCCC[C@H](N)C(=O)O; αMeS = C[C@](N)(CO)C(=O)O; NMeA = CN[C@@H](C)C(=O)O; Nle = CCCC[C@H](N)C(=O)O; Dab = NCC[C@H](N)C(=O)O; Dap = NC[C@H](N)C(=O)O; Sar = CNCC(=O)O

How the values were obtained:
[1] = molecular target: T1, human soluble TNFR1 (sTNFR1) (Homo sapiens, UniProt P19438); assay: Human sTNFR1-peptide displacement assay (LanthaScreen Eu TR-FRET binding assay)
T1 construct: made in house; host or cells: Sf21 (baculovirus)
T1 sequence (P19438 with tags, fused parts or gaps): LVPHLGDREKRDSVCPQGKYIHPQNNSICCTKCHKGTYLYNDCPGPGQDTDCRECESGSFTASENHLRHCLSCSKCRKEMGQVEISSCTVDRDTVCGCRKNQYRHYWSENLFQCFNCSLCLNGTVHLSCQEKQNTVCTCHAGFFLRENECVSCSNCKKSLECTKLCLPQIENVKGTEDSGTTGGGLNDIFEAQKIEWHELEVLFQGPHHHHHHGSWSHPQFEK
Outline: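 Readout is the 665/615 nm TR-FRET ratio (Eu anti-His donor, streptavidin-Alexa647 acceptor), normalized to DMSO and saturating displacer, fit by Morrison-based five-parameter logistic for Kd^app. His-tagged sTNFR1 (1-211) prebound to 100 nM biotinylated peptide SEQ ID NO.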

[2] = molecular target: T2, human TNFR1 extracellular domain (ECD) protein (Homo sapiens, UniProt P19438); assay: SPR binding affinity to captured human TNFR1 ECD
T2 construct: HRV 3C protease cleavage site (C); 6His (C, cleaved yes); made in house; host or cells: Sf21 insect cells (baculovirus), secreted
T2 sequence (P19438 30-211): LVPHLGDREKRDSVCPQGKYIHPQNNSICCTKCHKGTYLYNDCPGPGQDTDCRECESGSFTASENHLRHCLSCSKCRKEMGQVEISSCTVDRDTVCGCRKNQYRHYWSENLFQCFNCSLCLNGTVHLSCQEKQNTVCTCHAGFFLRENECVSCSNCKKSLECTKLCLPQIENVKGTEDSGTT
Outline: (§1)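 SPR kinetics: peptides over captured avi-biotinylated receptor ECDs, TNFR1 for affinity, TNFR2 run in parallel for off-target binding. Running buffer HEPES pH 7.4 with 150 mM NaCl, 3 mM EDTA, 0.05% P20, 2% DMSO; surface regenerated between analytes. Affinity derived from kon/koff.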

[3] = molecular target: T3, human TNFR2 ECD protein (Homo sapiens, UniProt P20333); assay: SPR off-target binding (selectivity) to human TNFR2 ECD
T3 construct: HRV 3C protease cleavage site (C); 6His (C, cleaved yes); made in house; host or cells: Sf21 insect cells (baculovirus), secreted
T3 sequence (P20333 23-257): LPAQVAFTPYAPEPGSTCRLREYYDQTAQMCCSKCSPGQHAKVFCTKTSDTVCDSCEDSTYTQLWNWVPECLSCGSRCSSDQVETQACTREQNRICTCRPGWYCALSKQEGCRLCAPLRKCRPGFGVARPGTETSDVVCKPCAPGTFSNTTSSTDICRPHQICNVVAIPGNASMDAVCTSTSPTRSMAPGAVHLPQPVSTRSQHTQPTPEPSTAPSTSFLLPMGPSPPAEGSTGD
Outline: as §1

Compound | pKd [1] | pKd [2] | pKd [3] | pIC50 [1]
COc1cccc2c([C@H](C)[C@@H]3NC(=O)CN(C)C(=O)[C@H](Cc4cccc(C(N)=O)c4)NC(=O)[C@H](Cc4ccc(C(N)=O)cc4)NC(=O)[C@](C)(CO)NC(=O)[C@H](Cc4c[nH]c5c(Cl)cccc45)NC(=O)[C@H](Cc4ccncc4)NC(=O)[C@H](CC(N)=O)NC(=O)[C@H]4C[C@H](O)CN4C(=O)[C@H](Cc4c[nH]c5ccccc45)NC(=O)[C@@H]4CC[C@@H](O)CN4C(=O)[C@H](Cc4ccncc4)NC(=O)[C@H](CCNC(=O)c4ccon4)NC(=O)[C@@H]4CC[C@@H](C4)NC3=O)c[nH]c12 [SEQ ID NO. 169] (cyclo([4Pal][Trp(7-Cl)][αMeS][Phe(4-CONH2)][Phe(3-CONH2)][Sar][Trp(βS-Me,7-OMe)][X1][Dab](Isoxazole(3-carbonyl))[4Pal][Pip(5R-OH)]W[dHyp]N)) | 9.80 | 10.10 | < 6.00 | –
CCCC[C@@H]1NC(=O)[C@@H]2CC[C@@H](C2)NC(=O)[C@H]([C@@H](C)c2c[nH]c3c(OC)cccc23)NC(=O)CN(C)C(=O)[C@H](Cc2ccc(C(N)=O)cc2)NC(=O)[C@H](Cc2ccc(C(N)=O)cc2)NC(=O)[C@](C)(CO)NC(=O)[C@H](Cc2c[nH]c3c(C#N)cccc23)NC(=O)[C@H](Cc2ccc(C(=O)O)cc2)NC(=O)[C@H](CC(N)=O)NC(=O)[C@H]2C[C@H](F)CN2C(=O)[C@H](Cc2c[nH]c3ccccc23)NC(=O)[C@@H]2CC[C@@H](O)CN2C(=O)[C@H](Cc2ccncc2)NC1=O [SEQ ID NO. 114] (cyclo([4Pal][Pip(5R-OH)]W[dPro(trans-4-F)]N[Phe(4-COOH)][Trp(7-CN)][αMeS][Phe(4-CONH2)][Phe(4-CONH2)][Sar][Trp(βS-Me,7-OMe)][X1][Nle])) | 10.70 | 10.70 | < 6.00 | –
CCCC[C@@H]1NC(=O)[C@@H]2CC[C@@H](C2)NC(=O)[C@H]([C@@H](C)c2c[nH]c3c(OC)cccc23)NC(=O)CN(C)C(=O)[C@H](Cc2ccc(O)cc2)NC(=O)[C@H](Cc2ccc(C(=O)O)cc2)NC(=O)[C@](C)(CO)NC(=O)[C@H](Cc2c[nH]c3c(Cl)cccc23)NC(=O)[C@H](Cc2ccncc2)NC(=O)[C@H](CC(N)=O)NC(=O)[C@H](CCC(=O)O)N(C)C(=O)[C@H](Cc2c[nH]c3c(Cl)cccc23)NC(=O)[C@@H]2CNCCN2C(=O)[C@H](Cc2ccncc2)NC1=O [SEQ ID NO. 262] (cyclo([4Pal][Trp(7-Cl)][αMeS][Phe(4-COOH)]Y[Sar][Trp(βS-Me,7-OMe)][X1][Nle][4Pal][Pip(4-aza)][Trp(7-Cl)][NMeE]N)) | 9.41 | 9.62 | < 6.00 | –
CN1CC(=O)N[C@@H](Cc2c[nH]c3ccccc23)C(=O)N[C@H](C(N)=O)CSCC(=O)N[C@@H](CCc2ccccc2)C(=O)N[C@@H](Cc2ccncc2)C(=O)N[C@@H](CN)C(=O)N[C@@H](Cc2c[nH]c3ccccc23)C(=O)N2CCC[C@@H]2C(=O)N[C@@H](CC(N)=O)C(=O)N[C@@H](Cc2ccncc2)C(=O)N[C@@H](Cc2ccc3ccccc3c2)C(=O)N[C@@](C)(CO)C(=O)N[C@@H](Cc2ccc(C(=O)O)cc2)C(=O)N[C@@H](Cc2cccnc2)C1=O [SEQ ID NO. 233] ({CH2CO}-[hPhe][4Pal][Dap]W[dP]N[4Pal][2Nal][αMeS][Phe(4-COOH)][3Pal][Sar]WC-NH2; thioether N-14) | – | 9.11 | < 6.00 | 8.58
CCCC[C@@H]1NC(=O)CSC[C@@H](C(N)=O)NC(=O)[C@H]([C@@H](C)c2c[nH]c3c(OC)cccc23)NC(=O)CN(C)C(=O)[C@H](Cc2ccc(O)cc2)NC(=O)[C@H](Cc2ccc(C(=O)O)cc2)NC(=O)[C@](C)(CO)NC(=O)[C@H](Cc2c[nH]c3c(Cl)cccc23)NC(=O)[C@H](Cc2ccncc2)NC(=O)[C@H](CC(N)=O)NC(=O)[C@H](CCC(=O)O)N(C)C(=O)[C@H](Cc2c[nH]c3ncccc23)NC(=O)[C@@H]2CNCCN2C(=O)[C@H](CCc2ccccc2)NC1=O [SEQ ID NO. 172] ({CH2CO}-[Nle][hPhe][Pip(4-aza)][Trp(7-aza)][NMeE]N[4Pal][Trp(7-Cl)][αMeS][Phe(4-COOH)]Y[Sar][Trp(βS-Me,7-OMe)]C-NH2; thioether N-14) | 9.24 | 9.70 | < 6.00 | 9.20
CCCC[C@@H]1NC(=O)[C@@H]2CC[C@@H](C2)NC(=O)[C@H]([C@@H](C)c2c[nH]c3c(OC)cccc23)NC(=O)CN(C)C(=O)[C@H](Cc2ccc(O)cc2)NC(=O)[C@H](Cc2ccc(C(=O)O)cc2)NC(=O)[C@](C)(CO)NC(=O)[C@H](Cc2c[nH]c3c(Cl)cccc23)NC(=O)[C@H](Cc2ccncc2)NC(=O)[C@H](CC(N)=O)NC(=O)CN(C)C(=O)[C@H](Cc2c[nH]c3ccccc23)NC(=O)[C@@H]2CNCCN2C(=O)[C@H](Cc2ccncc2)NC1=O [SEQ ID NO. 141] (cyclo([4Pal][Trp(7-Cl)][αMeS][Phe(4-COOH)]Y[Sar][Trp(βS-Me,7-OMe)][X1][Nle][4Pal][Pip(4-aza)]W[Sar]N)) | 9.77 | 10.22 | < 6.00 | –
CCCC[C@@H]1NC(=O)[C@@H]2CC[C@@H](C2)NC(=O)[C@H]([C@@H](C)c2c[nH]c3c(OC)cccc23)NC(=O)CN(C)C(=O)[C@H](Cc2ccc(C(=O)O)cc2)NC(=O)[C@H](Cc2ccc(C(N)=O)cc2)NC(=O)[C@](C)(CO)NC(=O)[C@H](Cc2c[nH]c3c(Cl)cccc23)NC(=O)[C@H](Cc2ccncn2)NC(=O)[C@H](CC(N)=O)NC(=O)[C@H]2C[C@H](O)CN2C(=O)[C@H](Cc2c[nH]c3ncccc23)NC(=O)[C@@H]2CC[C@@H](O)CN2C(=O)[C@H](Cc2ccncc2)NC1=O [SEQ ID NO. 159] (cyclo([4Pal][Pip(5R-OH)][Trp(7-aza)][dHyp]N[X19][Trp(7-Cl)][αMeS][Phe(4-CONH2)][Phe(4-COOH)][Sar][Trp(βS-Me,7-OMe)][X1][Nle])) | 9.92 | 10.30 | < 6.00 | –
C[C@H]1C(=O)N[C@@H](CC(N)=O)C(=O)N[C@@H](Cc2ccncc2)C(=O)N[C@@H](Cc2c[nH]c3ccccc23)C(=O)N[C@@](C)(CO)C(=O)N[C@@H](Cc2ccc(C(=O)O)cc2)C(=O)N[C@@H](Cc2ccc(O)cc2)C(=O)N(C)CC(=O)N[C@@H](Cc2c[nH]c3ccccc23)C(=O)N[C@@H]2C=C[C@@H](C2)C(=O)N[C@@H](CCc2ccccc2)C(=O)N[C@@H](Cc2ccncc2)C(=O)N[C@@H](CO)C(=O)N[C@@H](Cc2c[nH]c3ccccc23)C(=O)N1C [SEQ ID NO. 248] (cyclo([4Pal]SW[NMeA]N[4Pal]W[αMeS][Phe(4-COOH)]Y[Sar]W[X4][hPhe])) | 8.81 | 8.70 | < 6.00 | 8.84
C[C@@H](c1c[nH]c2ccccc12)[C@@H]1NC(=O)CN(C)C(=O)[C@H](Cc2c[nH]cn2)NC(=O)[C@H](Cc2ccc(C(=O)O)cc2)NC(=O)[C@](C)(CO)NC(=O)[C@H](Cc2c[nH]c3c(Cl)cccc23)NC(=O)[C@H](Cc2ccc(C(=O)O)cc2)NC(=O)[C@H](CC(N)=O)NC(=O)[C@H]2CCCN2C(=O)[C@H]([C@@H](C)c2c[nH]c3ccccc23)NC(=O)[C@H](CO)NC(=O)[C@H](Cc2ccc(CN)cc2)NC(=O)[C@H](CCCNC(N)=O)NC(=O)CSC[C@@H](C(N)=O)NC1=O [SEQ ID NO. 215] ({CH2CO}-[Cit][Phe(4-CH2NH2)]S[Trp(βS-Me)][dP]N[Phe(4-COOH)][Trp(7-Cl)][αMeS][Phe(4-COOH)]H[Sar][Trp(βS-Me)]C-NH2; thioether N-14) | – | 8.74 | < 6.00 | 8.55
CCCC[C@@H]1NC(=O)CSC[C@@H](C(N)=O)NC(=O)[C@](C)(Cc2c[nH]c3ccccc23)NC(=O)CN(C)C(=O)[C@H](Cc2ccc(O)cc2)NC(=O)[C@H](Cc2ccc(C(=O)O)cc2)NC(=O)[C@](C)(CO)NC(=O)[C@H](Cc2c[nH]c3c(Cl)cccc23)NC(=O)[C@H](Cc2ccncc2)NC(=O)[C@H](CC(N)=O)NC(=O)[C@H](CCC(=O)O)N(C)C(=O)[C@H](Cc2c[nH]c3ncccc23)NC(=O)[C@H](C2(O)CC2)NC(=O)[C@H](Cc2ccncc2)NC1=O [SEQ ID NO. 281] ({CH2CO}-[Nle][4Pal][X6][Trp(7-aza)][NMeE]N[4Pal][Trp(7-Cl)][αMeS][Phe(4-COOH)]Y[Sar][αMeW]C-NH2; thioether N-14) | – | 9.30 | < 6.00 | 8.85
